The test system of one test is HCT-116. The test can be described thus: Antiproliferative activity against human HCT116 cells assessed as inhibition of cell proliferation measured after 2 to 4 hrs incubation by MTT assay. In kind it is functional, cell-based. In general terms: Tetrazolium dyes change colour on reduction, which living cells bring about.
Test [1] deals with MCF7. The test can be described thus: Cytotoxicity against human MCF7 cells assessed as cell killing by SRB colorimetric assay. In kind it is functional, cell-based. For orientation: Sulforhodamine B stains cellular protein and so reports cell mass.
In test [2] the test system is PC-3. The test can be described thus: Cytotoxicity against human PC-3 cells assessed as cell viability measured after 24 hrs incubation followed by incubated 3 hrs with MTS reagent by MTS assay. The format is functional, cell-based.
In test [3] the test system is CWR22R. The test can be described thus: Cytotoxicity against human 22Rv1 cells assessed as cell viability measured after 24 hrs incubation followed by incubated 3 hrs with MTS reagent by MTS assay. The format is functional, cell-based.
For test [4], the system named is CWR22R. The test can be described thus: Cytotoxicity against human 22Rv1 cells assessed as cell viability measured after 48 hrs incubation by MTT assay. Particulars: 22Rv1, 48 h. In kind it is functional, cell-based.
A short description of test [5]: Cytotoxicity against p53-/- transgenic mouse derived T11 cells assessed as cell viability measured after 48 hrs by Cell Titer Glo assay. In kind it is functional, cell-based. As to conditions: T11, 48 h. Background: In ATP-based viability assays light output follows the ATP content of the culture.
The next test deals with BT-474. The test can be described thus: Anticancer activity against human BT-474 cells assessed as cell viability measured after 48 hrs by MTT assay. Particulars: BT-474, 48 h. The format is functional, cell-based.
Test [6] has as its target Hepatocyte growth factor receptor (Homo sapiens, UniProt P08581). The test can be described thus: Inhibition of c-Met phosphorylation in human BT-474 cells using Z-LYTE Tyr6 peptide substrate measured after 1 hr incubation by Z-LYTE c-Met Kinase assay. In kind it is cell-based.
A further test deals with A549. The test can be described thus: Cytotoxicity against human A549 cells assessed as cell viability measured after 24 hrs incubation by MTT assay. The format is functional, cell-based. Particulars: A549, 24 h.
In test [7] the test system is PC-3. The test can be described thus: Antiproliferative activity against human PC-3 cells assessed as inhibition of cell proliferation measured after 2 to 4 hrs incubation by MTT assay. The format is functional, cell-based.
For a further test, the system named is DU-145. The test can be described thus: Antiproliferative activity against human DU-145 cells assessed as inhibition of cell proliferation measured after 2 to 4 hrs incubation by MTT assay. The format is functional, cell-based.
Test [8] deals with MDA-MB-231. The test can be described thus: Cytotoxicity against human MDA-MB-231 cells assessed as cell growth inhibition incubated for 72 hrs by alamarblue staining based assay. The format is functional. As to conditions: MDA-MB-231, 72 h.
The subject of a further test is SW-620. The test can be described thus: Cytotoxicity against human SW620 cells assessed as cell growth measured after 24 hrs incubation by Sulforhodamine B (SRB) assay. As to conditions: SW-620, 24 h. The format is functional, cell-based.
The next test concerns SW480. The test can be described thus: Cytotoxicity against human SW480 cells assessed as cell growth measured after 24 hrs incubation by Sulforhodamine B (SRB) assay. The format is functional, cell-based. Particulars: SW480, 24 h.
The subject of test [9] is MDA-MB-231. The test can be described thus: Cytotoxicity against human MDA-MB-231 cells measured after 24 to 72 hrs by MTT cell proliferation assay. The format is functional, cell-based.
Another test deals with NCI-H292. The test can be described thus: Cytotoxicity against human NCI-H292 cells. In kind it is functional, cell-based.
The next test concerns NCI-H460. The test can be described thus: Cytotoxicity against human NCI-H460 cells. In kind it is functional, cell-based.
Test [10] has as its system MDA-MB-231. The test can be described thus: Cytotoxicity against human MDA-MB-231 cells assessed as cell viability measured after 48 hrs by MTT assay. In kind it is functional, cell-based. As to conditions: MDA-MB-231, 48 h.
Test [11] concerns MCF7. The test can be described thus: Cytotoxicity against human MCF7 cells assessed as cell viability measured after 48 hrs by MTT cell proliferation assay. In kind it is functional, cell-based. As to conditions: MCF7, 48 h.

SMILES strings stand for the structures.

Chain of Hepatocyte growth factor receptor (P08581 whole entry): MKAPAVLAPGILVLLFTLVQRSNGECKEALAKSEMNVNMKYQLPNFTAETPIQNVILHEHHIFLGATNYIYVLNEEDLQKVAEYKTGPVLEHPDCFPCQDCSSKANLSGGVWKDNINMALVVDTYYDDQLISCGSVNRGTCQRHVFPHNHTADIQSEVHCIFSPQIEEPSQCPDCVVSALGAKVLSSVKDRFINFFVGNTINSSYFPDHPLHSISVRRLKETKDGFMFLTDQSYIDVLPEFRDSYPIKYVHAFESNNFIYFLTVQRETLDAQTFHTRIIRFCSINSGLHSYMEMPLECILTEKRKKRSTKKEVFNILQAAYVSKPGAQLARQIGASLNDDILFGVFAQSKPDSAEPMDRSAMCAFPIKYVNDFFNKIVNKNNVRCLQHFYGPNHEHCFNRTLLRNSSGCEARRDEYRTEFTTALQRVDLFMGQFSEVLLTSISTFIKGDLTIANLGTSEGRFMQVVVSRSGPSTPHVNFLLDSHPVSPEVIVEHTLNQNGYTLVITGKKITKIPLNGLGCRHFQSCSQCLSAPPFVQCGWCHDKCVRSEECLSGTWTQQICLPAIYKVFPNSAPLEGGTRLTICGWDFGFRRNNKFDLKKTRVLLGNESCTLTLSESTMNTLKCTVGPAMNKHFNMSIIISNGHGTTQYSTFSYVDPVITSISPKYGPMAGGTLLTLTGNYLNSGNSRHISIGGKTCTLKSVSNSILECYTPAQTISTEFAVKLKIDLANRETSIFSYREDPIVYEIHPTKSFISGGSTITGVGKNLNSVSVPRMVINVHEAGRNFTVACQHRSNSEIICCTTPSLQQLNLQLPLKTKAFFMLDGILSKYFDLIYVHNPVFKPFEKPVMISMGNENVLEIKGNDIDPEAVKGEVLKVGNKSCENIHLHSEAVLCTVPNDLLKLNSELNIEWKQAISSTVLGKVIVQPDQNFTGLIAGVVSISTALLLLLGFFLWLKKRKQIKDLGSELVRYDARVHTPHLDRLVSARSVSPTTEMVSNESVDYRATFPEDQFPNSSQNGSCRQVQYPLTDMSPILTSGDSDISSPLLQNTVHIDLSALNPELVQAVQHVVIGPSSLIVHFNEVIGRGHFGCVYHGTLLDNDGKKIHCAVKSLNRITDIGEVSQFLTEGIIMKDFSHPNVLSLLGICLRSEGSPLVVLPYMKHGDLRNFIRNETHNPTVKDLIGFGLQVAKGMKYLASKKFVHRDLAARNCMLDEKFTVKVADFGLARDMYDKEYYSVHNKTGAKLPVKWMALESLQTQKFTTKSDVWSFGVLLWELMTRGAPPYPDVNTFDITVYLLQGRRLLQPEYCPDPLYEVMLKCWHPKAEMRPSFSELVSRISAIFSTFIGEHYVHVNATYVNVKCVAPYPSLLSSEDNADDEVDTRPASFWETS

Regarding `CC[C@@H]1CCCC[C@]2(C[C@H]3CC[C@@]4(O)[C@@H](C(=O)OCCCCCCCCCCCCCCCCC(=O)N(CCCN)C[C@@H](O)CCN)[C@@]5(CCC[C@H](C)O5)N=C(N2)N34)O1`, the IC50 in the test on HCT-116 came to 4 µM.

On to `CC[C@@H]1C=CCC[C@]2(C[C@H]3CC[C@@]4(O)[C@@H](C(=O)OCCCCCCCCCCCCCCCC(=O)N(CCCN)C[C@@H](O)CCN)[C@@]5(CCC[C@H](C)O5)N=C(N2)N34)O1`, for which, in the test on HCT-116, the IC50 amounted to 4.7 µM.

`CN1C(=O)/C(=N\NC(=O)Cc2c[nH]c3ccccc23)c2ccccc21`: in the test with MCF7 [1], the IC50 turned out to be 1.28 µM.

As to `O=C1c2ccc(Br)cc2-[n+]2ccc3c([nH]c4cc(Br)ccc43)c21`, the IC50 stood at 7.28 µM in the test on PC-3 [2] and 0.69 µM in the test on CWR22R [3].

On to `O=C(Cc1c[nH]c2ccccc12)N/N=C1\C(=O)Nc2ccc([N+](=O)[O-])cc21`, for which the IC50 in the test on MCF7 [1] was found to be 0.44 µM.

For `CCC/C=C\CC[C@@H](O)C[C@H]1CCC2=C(C(=O)OCCCCN(O)C(=N)N)[C@H](CC/C=C\CCC)NC(=N)N21`, in the test on CWR22R [4], the IC50 turned out to be 5 µM.

As for `CC[C@H]1C=CCC[C@@]2(C[C@@H]3CC[C@@H]4[C@H](C(=O)OCCCCCCCCCCCCCCCC(=O)N(CCCN)C[C@@H](O)CCN)[C@]5(CCC[C@@H](C)O5)NC(=N2)N34)O1`, the IC50 in [5] is 0.09 µM.

For the compound `[O-][N+]12CCC[C@]3(O)CCCCCC[C@H]4CCN5CCC[C@@H](CCCCCC[C@@H](CC1)O[C@@H]32)[C@@H]5O4` (some centres not stated), the IC50 in the test on BT-474 amounted to 15.2 µM; in test [6], 19.9 µM.

In the case of `C/C=C(/C)C(=O)OC[C@H]1c2c(c(O)c(C)c3c2OCO3)C[C@H]2[C@H]3C4=C(C[C@@H]([C@H](C#N)N12)N3C)C(=O)C(C)=C(OC)C4=O`, in the test with A549, the IC50 was found to be 25 µM.

`COC1=C(Br)[C@H](O)[C@](O)(CC#N)C=C1Br`: the IC50 is 0.12 µM in the test on PC-3 [7] and 0.54 µM in the test on DU-145.

Regarding `N=C(N)NCCCCNC(=O)[C@@]1(O)[C@H](Cc2c[nH]c3cc(Br)ccc23)[C@@](O)(Cc2c[nH]c3cc(Br)ccc23)C(=O)N1CCCCNC(=N)N` [EUSYNSTYELAMIDE B], the IC50 in the test on MDA-MB-231 [8] was found to be 5 µM.

With `Cn1ccc2c(c1=O)C(=O)c1nccc3c1c-2nc1ccccc13` [NEOAMPHIMIDINE], the half-inhibitory concentration (IC50) in the test with SW-620 amounted to 0.06 µM; with SW480, 0.006 µM.

In the case of `CCC/C=C\CC[C@@H](O)C[C@H]1CCC2=C(C(=O)OCCCCN(O)C(=N)N)[C@H](CC/C=C\CCC)NC(N)=[N+]21`, the IC50 in the test with CWR22R [4] was found to be 5 µM.

Consider `COc1cc2ccnc3c2c(c1O)N(C)C=C3` [ISOAAPTAMINE], for which the IC50 with MDA-MB-231 [9] was 30.1 µM.

For the compound `C/C=C(/C)C(=O)OC[C@H]1c2c(O)c(OC)c(C)c(OC(=O)/C=C/c3ccccc3)c2C[C@H]2[C@H]3C4=C(C[C@@H]([C@H](C#N)N12)N3C)C(=O)C(C)=C(OC)C4=O`, the IC50 with NCI-H292 and in the test on NCI-H460 was 14.6 µM each time.

With `O=C1c2cccc(Cl)c2-[n+]2ccc3c([nH]c4ccccc43)c21`, the IC50 in the test with MDA-MB-231 [10] amounted to 0.3 µM.

Regarding `Cn1c2ccccc2c2cc(C3=NCCc4c3[nH]c3ccccc43)ccc21`, the IC50 with MCF7 [11] is 5.48 µM.

In general, IC50 refers to the concentration at which inhibition is half-maximal.

The values above are taken from ChEMBL document CHEMBL5614441, “Anticancer potential of active alkaloids and synthetic analogs derived from marine invertebrates” (Eur J Med Chem, 2024).
